Each structure is given as a SMILES string. Several values for one entry are separate records, joined by “and”; a condition that tells them apart may be missing. Equal entries are not always repeated. Entries after “also recorded” stand apart in the source; their conditions may differ.

Data on one compound can be found in patent US11186603B2, “Heparan sulfate glycomimetic compounds and their pharmaceutical and cosmeceutical uses” (VICTORIA LINK LIMITED, priority 2017, dated 2021).

Test [1] concerns bacterial collagenase type II from Clostridium histolyticum. Kind of test: Colorimetric gelatinolytic assay, collagenase inhibition. Conditions: 10 μM. The class given is biochemical. On the procedure:
A colorimetric gelatinolytic assay was used to evaluate the effects of heparanase inhibitors on the activity of bacterial collagenase type II from Clostridium histolyticum. The reaction mixture was prepared in a total volume of 20 μl for each well of the microplate/inhibition assay. First, 1 ul of 100 ng of bacterial collagenase and 2 μl of the heparanase inhibitor or positive control (50 μg/ml doxycycline) were added into each well of a 96-well plate and incubated at 37° C. for 60 min. On completion of the incubation, 10 μg of gelatin and 2 μl of 10× collagenase buffer (500 mM Tris-HCl, 100 mM CaCl2, and 1.5 M NaCl) were added to distilled water to obtain the final volume of 20 μl. The plate was then incubated at 37° C. for 4 h. Subsequently, the amount of gelatin remaining was quantified by the addition of 20 μl of 2.5% w/v of Coomassie Brilliant blue R-250 (Sigma-Aldrich) dissolved in 40% methanol/10% acetic acid, followed by shaking on an orbital shaker for 5 min. The supernatant was carefully removed by pipette to ensure that the gelatin pellet was not disturbed and 50 μl of dimethyl sulfoxide was added to dissolve the pellet. The plate was incubated at room temperature for 15 min followed by shaking on an orbital shaker for 5 min. The plate was then read in a Versa max microplate reader at 600 nm.

The subject of test [2] is human dermal fibroblast cell line, CRL2071. In words: Production of hyaluronan (ELISA). Conditions: liberated, 10 μM, 72 h. The class given is cell-based. As to the method: Cells from the human dermal fibroblast cell line, CRL2071 (passages 12-14), obtained from normal breast skin of a person, were allowed to attach for 6-8 hours before the addition of the test compounds. After 72 h of exposure to the test articles the media was removed, cells counted and the cell-associated fraction extracted. The media and cell-associated fraction were analysed for the concentration of hyaluronan using a Hyaluronan Detection Kit ELISA.
(§1) The test compounds, positive controls and no treatment media were added to the flasks (2.5 ml/flask) and cells were incubated for 72 h before removal of the supernatant. After removal of the supernatant, cell monolayers were trypsinsed with 2.5 ml of 0.025% trypsin/[…] in PBS to each flask. After cell detachment (7-10 min), 1 ml of the cell/trypsin mixture was added to a 20 ml counting vial containing 9 ml of normal saline. The cells were quantitated with a Coulter Counter Z2.
In some treatments cells were found floating. They were collected, counted and subjected to viability testing using 1% trypan blue staining. The remaining 1.5 ml of trypsin/cell mixture was sonicated with a Branson tip-probed sonicator for 1 min, setting 6 before centrifugation at 10,000 rpm for 10 min. The supernatant was removed and used in the hyaluronan ELISA for the quantitation of cell-associated hyaluronan.

The test system is the same in test [3]. In words: Production of collagen type I (ELISA). The class given is cell-based. As to the method: Cells from the human dermal fibroblast cell line, CRL2071 (passages 12-14), obtained from normal breast skin of a person, were allowed to attach for 6-8 hours before the addition of the test compounds. After 72 h of exposure to the test articles the media was removed, cells counted and the cell-associated fraction extracted. The media and cell-associated fraction were analysed for the concentration of collagen type I using a Chondrex Human type I Collagen Detection Kit ELISA (Cat #6021).
After complete dissolution the solutions were sterile filtered through a […] syringe filter and kept at 4° C. until use. Prior to each experiment dilutions were freshly prepared by diluting to 100 nM, 1 μM or 10 μM in cell-specific media.
as §1
In some treatments cells were found floating. They were collected, counted and subjected to viability testing using 1% trypan blue staining. The remaining 1.5 ml of trypsin/cell mixture was sonicated with a Branson tip-probed sonicator for 1 min, setting 6 before centrifugation at 10,000 rpm for 10 min. The supernatant was removed and used in the collagen ELISA for the quantitation of cell-associated collagen.
Background: ELISA stands for enzyme-linked immunosorbent assay.

In test [4] the target is T1, Recombinant human heparanase (Homo sapiens, UniProt Q9Y251).
T1 construct: made in house; host or cells: insect cells
T1 sequence (Q9Y251 158-543 limits assumed): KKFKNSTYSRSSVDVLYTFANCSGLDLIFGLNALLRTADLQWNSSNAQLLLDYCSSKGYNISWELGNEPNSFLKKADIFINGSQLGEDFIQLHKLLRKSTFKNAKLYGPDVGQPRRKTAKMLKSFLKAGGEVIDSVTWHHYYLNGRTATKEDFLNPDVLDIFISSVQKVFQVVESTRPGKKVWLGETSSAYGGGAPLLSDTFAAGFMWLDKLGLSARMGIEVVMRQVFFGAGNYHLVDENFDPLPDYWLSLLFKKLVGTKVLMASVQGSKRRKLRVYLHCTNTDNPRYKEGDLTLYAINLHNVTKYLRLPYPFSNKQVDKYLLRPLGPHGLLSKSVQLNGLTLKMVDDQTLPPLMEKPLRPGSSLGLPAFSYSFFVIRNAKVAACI
T1 sequence (Q9Y251 36-109 limits assumed): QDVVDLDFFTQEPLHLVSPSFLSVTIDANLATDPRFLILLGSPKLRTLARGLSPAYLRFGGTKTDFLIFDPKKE
Kind of test: Heparanase inhibition colorimetric assay (fondaparinux / WST-1). The class given is biochemical. Conditions: FIGS. 1 to 3; inhibitor 1 μM, 10 μM and dose response. On the procedure: The assay methodology used is described in Hammond, E., et al., Development of a colorimetric assay for heparanase activity suitable for kinetic analysis and inhibitor screening, Anal. Biochem. 2010, 396 (1), 112-116.
Reagents were obtained from Sigma-Aldrich. Assays were carried out in 96-well microplates (Costar 9018 EIA/RIA, Corning) that had been pretreated with a solution of 4% bovine serum albumin (BSA) in phosphate-buffered saline containing 0.05% Tween 20 (PBST) for 2 h at 37° C. The plates were then washed three times with PBST and shaken dry. Pretreated plates were stored at 4° C. for up to 2 weeks before use.
Recombinant human heparanase was expressed in insect cells and then purified from the cell medium into which it had been secreted. […] Fractions containing pure heparanase, determined by silver staining of sodium dodecyl sulfate-polyacrylamide gel electrophoresis (SDS-PAGE), were pooled, dialyzed into 10 mM sodium phosphate (pH 7.0), concentrated using Centriplus concentrating devices (Millipore), and stored at −80° C. until use.
Assay solutions (100 μl) were composed of 40 mM sodium acetate buffer (pH 5.0) and […] fondaparinux (GlaxoSmithKline) with or without inhibitor. […] The plates were resealed with adhesive tape and developed at 60° C. for 60 min, and the absorbance was measured at 584 nm (FLUOstar, BMG Labtech).
For orientation: Tetrazolium assays rely on reduction of a dye to a coloured formazan, in cell work by metabolically active cells.

In the case of `O=C(CCOCC(COCCC(=O)NCCCCCCOC1OC(COS(=O)(=O)[O-])C(OS(=O)(=O)[O-])C(OS(=O)(=O)[O-])C1OS(=O)(=O)[O-])(COCCC(=O)NCCCCCCOC1OC(COS(=O)(=O)[O-])C(OS(=O)(=O)[O-])C(OS(=O)(=O)[O-])C1OS(=O)(=O)[O-])COCCC(=O)NCCCCCCOC1OC(COS(=O)(=O)[O-])C(OS(=O)(=O)[O-])C(OS(=O)(=O)[O-])C1OS(=O)(=O)[O-])NCCCCCCOC1OC(COS(=O)(=O)[O-])C(OS(=O)(=O)[O-])C(OS(=O)(=O)[O-])C1OS(=O)(=O)[O-].[Na+].[Na+].[Na+].[Na+].[Na+].[Na+].[Na+].[Na+].[Na+].[Na+].[Na+].[Na+].[Na+].[Na+].[Na+].[Na+]` (stereo not shown) [Compound 17b], the “Collagenase inhibition as a % of the "No Treatment" control (Mean ± SD)” value in test [1] came to 74 ± 2%. Moreover, the “Hyaluronan as % of No Treatment Control (Mean ± SD)” value in test [2] was determined as 167 ± 36p = 0.233%. The “Collagen as % of No Treatment Control (Mean ± SD), Cell-associated” value in test [3] is 1,155 ± 25% and 2,371 ± 49% and 2,371%. Moreover, the “inhibition of heparanase (in words)” value in test [4] is on record as “particularly good inhibitors; also recorded: very good inhibition of heparanase”.
